Results taken from patent US20100137313A1 (ASTRAZENECA AB, priority 2008, published 2010).

Molecular target: S. pneumoniae Topoisomerase IV ATPase (ParE) (Streptococcus pneumoniae serotype 4, UniProt Q59961)
Assay: S. pneumoniae Topoisomerase IV ATPase inhibition
Format: biochemical
Conditions: values marked * are an average of two or more data points, read-out: % Inh (13 μM) of S. pneumoniae Topoisomerase IV ATPase
Experimental: S. pneumoniae Topoisomerase IV ATPase Inhibition Activity: Compounds may be tested for inhibition of S. pneumoniae ParE ATPase activity using an ammonium molybdate/malachite green-based phosphate detection assay (Lanzetta, P. A., L. J. Alvarez, P. S. Reinach, and O. A. Candia, 1979, 100: 95-97). Assays are performed in multiwell plates in 30 μl reactions containing: 20 mM Tris buffer pH 8.0, 50 mM ammonium acetate, 8.0 mM magnesium chloride, 0.5 mM ethylenediaminetetraacetic acid, 5% glycerol, 5 mM 1,4-Dithio-DL-threitol, 0.005% Brij-35, 5 μg/ml sheared salmon sperm DNA, 1.25 nM S. pneumoniae ParE, 160 μM ATP, and test compound in dimethylsulfoxide. Reactions are quenched with 30 μl of ammonium molybdate/malachite green detection reagent containing 1.2 mM malachite green hydrochloride, 8.5 mM ammonium molybdate tetrahydrate, and 1 M hydrochloric acid. Plates are read in an absorbance plate reader at 650 nm and percent inhibition values are calculated using dimethylsulfoxide (2%)-containing reactions as 0% inhibition and EDTA-containing ([…]) reactions as 100% inhibition controls. An IC50 measurement of compound potency for each compound can be determined from reactions performed in the presence of 10 different compound concentrations.
Many of the compounds of the invention were tested in an assay substantially similar to the assays described above for measuring the inhibition of E.coli GyrB ATPase, E. coli Topoisomerase IV ATPase, S. aureus GyrB ATPase, and S. pneumoniae Topoisomerase IV ATPase, and had IC50 values of <200 μM in one or more assays.

Chain of S. pneumoniae Topoisomerase IV ATPase (ParE) (Q59961 whole entry): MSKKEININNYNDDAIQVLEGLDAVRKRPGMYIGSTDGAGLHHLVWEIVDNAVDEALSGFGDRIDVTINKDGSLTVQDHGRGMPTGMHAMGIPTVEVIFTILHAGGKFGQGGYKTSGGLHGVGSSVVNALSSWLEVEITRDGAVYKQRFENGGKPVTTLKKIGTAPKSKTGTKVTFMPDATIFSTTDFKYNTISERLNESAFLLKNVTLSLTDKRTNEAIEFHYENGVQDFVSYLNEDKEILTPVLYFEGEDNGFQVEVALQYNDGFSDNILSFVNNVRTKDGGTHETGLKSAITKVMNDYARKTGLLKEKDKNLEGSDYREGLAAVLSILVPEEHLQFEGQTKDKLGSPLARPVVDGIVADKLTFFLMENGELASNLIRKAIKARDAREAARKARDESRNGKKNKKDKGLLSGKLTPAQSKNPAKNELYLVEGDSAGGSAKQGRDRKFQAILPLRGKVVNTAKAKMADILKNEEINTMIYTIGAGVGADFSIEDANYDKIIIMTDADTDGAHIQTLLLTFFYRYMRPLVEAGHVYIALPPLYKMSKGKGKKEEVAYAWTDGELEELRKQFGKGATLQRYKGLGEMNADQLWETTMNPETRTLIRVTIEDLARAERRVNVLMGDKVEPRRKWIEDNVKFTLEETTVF

COc1cc(Nc2ncc(-c3cncc(C(=O)NS(C)(=O)=O)c3)c(-n3ccc(C(F)(F)F)n3)n2)cc(OC)c1 [Example 686, 5-{2-[(3,5-dimethoxyphenyl)amino]-4-[3-(trifluoromethyl)-1H-pyrazol-1-yl]pyrimidin-5-yl}-N-(methylsulfonyl)pyridine-3-carboxamide]
inhibition at 13 µM: 100%

CCS(=O)(=O)NC(=O)c1cc(-c2cnc(Nc3cc(C)cc(C)c3)nc2-n2nc(C(F)(F)F)cc2C)cnc1OC [Example 823]
inhibition at 13 µM: 100%

CCOC(=O)c1cncc(-c2cnc(Nc3ccc(F)c(Cl)c3)nc2NCc2ccncc2)c1 [Example 97, 5-{2-(3-Chloro-4-fluoro-phenylamino)-4-[(pyridin-4-ylmethyl)-amino]-pyrimidin-5-yl}-nicotinic acid ethyl ester]
inhibition at 13 µM: 75.9%

Cc1cc(C(F)(F)F)nn1-c1nc(Nc2cccc(F)c2)ncc1-c1cccc(/C=C/C(=O)O)c1 [Example 622, (2E)-3-(3-{2-[(3-fluorophenyl)amino]-4-[5-methyl-3-(trifluoromethyl)-1H-pyrazol-1-yl]pyrimidin-5-yl}phenyl)prop-2-enoic acid]
inhibition at 13 µM: 98%

Fc1ccc(Nc2ncc(-c3cncnc3)c(NCCCN3CCOCC3)n2)cc1Cl [Example 49, N^2-(3-chloro-4-fluorophenyl)-N^4-(3-morpholin-4-ylpropyl)-5-pyrimidin-5-ylpyrimidine-2,4-diamine]
inhibition at 13 µM: 85.6%

CC(=O)NCCNc1nc(Nc2ccc(F)c(Cl)c2)ncc1-c1cncnc1 [Example 37, N-[2-[[2-[(3-chloro-4-fluorophenyl)amino]-5-pyrimidin-5-ylpyrimidin-4-yl]amino]ethyl] acetamide]
inhibition at 13 µM: 76.3%

COc1cc(Nc2ncc(-c3cnc(OC)c(C(=O)NS(C)(=O)=O)c3)c(-n3ccc(C4CC4)n3)n2)cc(OC)c1 [Example 1152, 5-(4-(3-cyclopropyl-1H-pyrazol-1-yl)-2-(3,5-dimethoxyphenylamino)pyrimidin-5-yl)-2-methoxy-N-(methylsulfonyl)nicotinamide]
inhibition at 13 µM: 100%

CCOC(=O)c1cncc(-c2cnc(Nc3cc(OC)cc(-n4cnnn4)c3)nc2N2CCOCC2)c1 [Example 380, 5-[2-(3-Methoxy-5-tetrazol-1-yl-phenylamino)-4-morpholin-4-yl-pyrimidin-5-yl]-nicotinic acid ethyl ester]
inhibition at 13 µM: 37%

COc1ncc(-c2cnc(Nc3ccc(F)c(Cl)c3)nc2NCCc2cccnc2)cn1 [Example 460, N^2-(3-chloro-4-fluorophenyl)-2′-methoxy-N^4-[2-(pyridin-3-yl)ethyl]-5,5′-bipyrimidine-2,4-diamine]
inhibition at 13 µM: 100%

COc1cc(Nc2ncc(-c3cnc(OCCCS(C)(=O)=O)c(C(=O)NS(=O)(=O)C(F)(F)F)c3)c(-n3ccc(C(F)(F)F)n3)n2)cc(OC)c1 [Example 972, 5-(2-(3,5-dimethoxyphenylamino)-4-(3-(trifluoromethyl)-1H-pyrazol-1-yl)pyrimidin-5-yl)-2-(3-(methylsulfonyl)propoxy)-N-(trifluoromethylsulfonyl)nicotinamide]
inhibition at 13 µM: 100%

NC(=O)c1cccc(-c2cnc(Nc3ccc(F)c(Cl)c3)nc2-n2ccc(C(F)(F)F)n2)c1 [Example 1147, 3-(2-(3-chloro-4-fluorophenylamino)-4-(3-(trifluoromethyl)-1H-pyrazol-1-yl)pyrimidin-5-yl)benzamide]
inhibition at 13 µM: 100%

O=C(O)/C=C/c1cccc(-c2cnc(Nc3ccc(F)c(Cl)c3)nc2-n2cnc(C(F)(F)F)c2)c1 [Example 332, (2E)-3-(3-{2-[(3-chloro-4-fluorophenyl)amino]-4-[4-(trifluoromethyl)-1H-imidazol-1-yl]pyrimidin-5-yl}phenyl)prop-2-enoic acid]
inhibition at 13 µM: 62.1%

CCCNc1nc(Nc2ccc(F)c(Cl)c2)ncc1-c1cncnc1 [Example 33, N^2-(3-chloro-4-fluorophenyl)-N^4-propyl-5-pyrimidin-5-ylpyrimidine-2,4-diamine]
inhibition at 13 µM: 81%

COc1ccc(CNc2nc(Nc3ccc(F)c(Cl)c3)ncc2-c2cnc(OC)nc2)cn1 [Example 465, N2-(3-chloro-4-fluorophenyl)-2′-methoxy-N4-((6-methoxypyridin-3-yl)methyl)-5,5′-bipyrimidine-2,4-diamine]
inhibition at 13 µM: 59%

CCOC(=O)c1cncc(-c2cnc(Nc3ccc(F)c(Cl)c3)nc2N[C@@H]2CCOC2)c1 [Example 146, (R)-ethyl 5-(2-(3-chloro-4-fluorophenylamino)-4-(tetrahydrofuran-3-ylamino)pyrimidin-5-yl)nicotinate]
inhibition at 13 µM: 79.7%

O=C(O)c1cncc(-c2cnc(Nc3ccc(F)c(Cl)c3)nc2N2CCOCC2)c1 [Example 273, 5-(2-(3-chloro-4-fluorophenylamino)-4-morpholinopyrimidin-5-yl)nicotinic acid]
inhibition at 13 µM: 94.4%

Cc1ccc(F)c(Nc2ncc(-c3cncc(C(=O)O)c3)c(-n3ccc(C(F)(F)F)n3)n2)c1 [Example 772, 5-{2-[(2-fluoro-5-methylphenyl)-amino]-4-[3-(trifluoromethyl)-1H-pyrazol-1-yl]pyrimidin-5-yl}pyridine-3-carboxylic acid]
inhibition at 13 µM: 81%

CC(=O)Nc1ccn(-c2nc(Nc3ccc(F)c(Cl)c3)ncc2-c2cncc(C(N)=O)c2)n1 [Example 541, 5-{4-[3-(acetylamino)-1H-pyrazol-1-yl]-2-[(3-chloro-4-fluorophenyl)amino]pyrimidin-5-yl}pyridine-3-carboxamide]
inhibition at 13 µM: 97%

O=C(O)c1cc(-c2cnc(Nc3ccc(F)c(Cl)c3)nc2N2CCOCC2)ccn1 [Example 493, 4-{2-[(3-chloro-4-fluorophenyl)amino]-4-(morpholin-4-yl)pyrimidin-5-yl}pyridine-2-carboxylic acid]
inhibition at 13 µM: 9%

CN(C)CCCNc1nc(Nc2cc(Cl)cc(Cl)c2)ncc1-c1ccc(C(=O)O)s1 [Example 339, 5-(2-(3,5-dichloro-phenylamino)-4-(3-(dimethylamino)propylamino)pyrimidin-5-yl) thiophene-2-carboxylic acid]
inhibition at 13 µM: 84.3%

O=C(O)c1cncc(-c2cnc(Nc3ccc(F)c(Cl)c3)nc2-n2nc(C(F)F)cc2C(F)F)c1 [Example 532, 5-{4-[3,5-bis(difluoromethyl)-1H-pyrazol-1-yl]-2-[(3-chloro-4-fluorophenyl)amino]-pyrimidin-5-yl}pyridine-3-carboxylic acid]
inhibition at 13 µM: 100%

Cn1cncc1CNc1nc(Nc2ccc(F)c(Cl)c2)ncc1-c1cccc(/C=C/C(=O)O)c1 [Example 296, (E)-3-(3-(2-(3-chloro-4-fluorophenylamino)-4-((1-methyl-1H-imidazol-5-yl)methylamino)pyrimidin-5-yl)phenyl)acrylic acid]
inhibition at 13 µM: 77.6%

O=C(O)Cn1cc(-c2cnc(Nc3ccc(F)c(Cl)c3)nc2N2CCOCC2)cn1 [Example 485, (4-{2-[(3-chloro-4-fluorophenyl)amino]-4-(morpholin-4-yl)pyrimidin-5-yl}-1H-pyrazol-1-yl)acetic acid]
inhibition at 13 µM: 85%

COCCn1cc(C(=O)O)c(=O)c2cc(-c3cnc(Nc4ccc(F)c(Cl)c4)nc3N3CCOCC3)ccc21 [Example 303, 6-(2-(3-chloro-4-fluorophenylamino)-4-morpholinopyrimidin-5-yl)-1-(2-methoxyethyl)-4-oxo-1,4-dihydroquinone-3-carboxylic acid]
inhibition at 13 µM: 82%
